Laboratory results as given in patent publication US10597388B2, “Pyridazinone herbicides” (FMC CORPORATION, priority 2014, dated 2020).

Legend:
Format in all cases: in vivo
[1] = tested on: barnyardgrass (Echinochloa crus-galli); assay: Test B flooded paddy test; details: 250 g ai/ha, Flood, visual rating on scale of 0 to 100 where 0 is no effect and 100 is complete control, 13 to 15 d after treatment; for pest or weed control at 250 g/ha: Echinochloa crus-galli, 360 h, read-out: Plant response rating, Barnyardgrass
How it was run: (§1)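 Ratings use a 0-100 visual scale, where 100 is complete control, and compare treated plants with controls after 13 to 15 d of greenhouse growth. Compound went straight into paddy water kept 3 cm over the soil surface, applied to seedlings at the 2-leaf stage.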

rice (Oryza sativa) = assay: Test B flooded paddy test; details: 250 g ai/ha, Flood, visual rating on scale of 0 to 100 where 0 is no effect and 100 is complete control, 13 to 15 d after treatment; for plant injury at 250 g/ha: Oryza sativa, 360 h, read-out: Plant response rating, Rice
How it was run: as §1

[2] = tested on: ducksalad (Heteranthera limosa); assay: Test B flooded paddy test; details: 250 g ai/ha, Flood, visual rating on scale of 0 to 100 where 0 is no effect and 100 is complete control, 13 to 15 d after treatment; for pest or weed control at 250 g/ha: Heteranthera limosa, 360 h, read-out: Plant response rating, Ducksalad
How it was run: as §1

[3] = tested on: sedge, umbrella (small-flower umbrella sedge, Cyperus difformis); assay: Test B flooded paddy test; details: 250 g ai/ha, Flood, visual rating on scale of 0 to 100 where 0 is no effect and 100 is complete control, 13 to 15 d after treatment; for pest or weed control at 250 g/ha: Cyperus difformis, 360 h, read-out: Plant response rating, Sedge, Umbrella
How it was run: as §1

kochia (Kochia scoparia) = assay: Test C greenhouse herbicide test, postemergence
Source text: (§2) At the same time, plants selected from these crop and weed species and also chickweed (common chickweed, Stellaria media), kochia (Kochia scoparia), and oat, wild (wild oat, Avena fatua), were planted in pots containing Redi-Earth® planting medium (Scotts Company, 14111 Scottslawn Road, Marysville, Ohio 43041) comprising spaghnum peat moss, vermiculite, wetting agent and starter nutrients and treated with postemergence applications of test chemicals formulated in the same manner. Plants ranged in height from 2 to 18 cm (1- to 4-leaf stage) for postemergence treatments. Treated plants and controls were maintained in a greenhouse for 13 to 15 d, after which time all species were compared to controls and visually evaluated. Plant response ratings, summarized in Table C, are based on a scale of 0 to 100 where 0 is no effect and 100 is complete control. A dash (-) response means no test result.

[4] = tested on: oat, wild (wild oat, Avena fatua); assay: Test C greenhouse herbicide test, postemergence
Source text: as §2

[5] = tested on: ragweed (common ragweed, Ambrosia elatior); assay: Test C greenhouse herbicide test, pre- and postemergence
How it was run: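 Percent-control ratings (0 none, 100 complete) came from visual comparison with controls held alongside in the greenhouse for 13–15 d. Treatments covered soil application at sowing and foliar application to young plants 2–18 cm tall.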

[6] = tested on: chickweed (common chickweed, Stellaria media); assay: Test C greenhouse herbicide test, postemergence
Source text: as §2

[7] = Postemergence, 31 g ai/ha, scale 0 to 100 (0 no effect, 100 complete control)
[8] = Postemergence, 62 g ai/ha, 0 to 100 scale (0 no effect, 100 complete control)
[9] = Postemergence, 250 g ai/ha, scale 0 to 100, 0 no effect, 100 complete control, 13 to 15 d
[10] = postemergence, 125 g ai/ha, scale 0 to 100, 0 no effect, 100 complete control
[11] = Preemergence, 31 g ai/ha, scale 0 to 100, 0 is no effect, 100 is complete control
[12] = Preemergence, 62 g ai/ha, scale 0 to 100, 0 is no effect, 100 is complete control
[13] = Preemergence, 125 g ai/ha, scale 0 to 100, 0 is no effect, 100 is complete control
[14] = Preemergence, 250 g ai/ha, scale 0 to 100 (0 no effect, 100 complete control)
[15] = Postemergence, 31 g ai/ha, 0 to 100 scale (0 no effect, 100 complete control)
[16] = Postemergence, 125 g ai/ha, scale 0 to 100, 0 is no effect, 100 is complete control
[17] = postemergence, 62 g ai/ha, scale 0 to 100, 0 no effect, 100 complete control
[18] = Postemergence, 16 g ai/ha, scale 0 to 100 (0 no effect, 100 complete control)

Compound | Plant response rating, Kochia (kochia (Kochia scoparia); [7]) | Plant response rating, Kochia (kochia (Kochia scoparia); [9]) | Plant response rating, Oat, Wild [4, 7] | Plant response rating, Oat, Wild [4, 9] | Plant response rating, Ragweed [5, 7] | Plant response rating, Ragweed [5, 9] | Plant response rating, Ragweed [5, 11] | Plant response rating, Ragweed [5, 12] | Plant response rating, Ragweed [5, 13] | Ragweed plant response rating [5, 14] | pest or weed control at 250 g/ha [1] [%] | plant injury at 250 g/ha (rice (Oryza sativa)) [%] | pest or weed control at 250 g/ha [2] [%] | pest or weed control at 250 g/ha [3] [%] | Plant response rating, Chickweed [6, 9] | Plant response rating, Kochia (kochia (Kochia scoparia); [16]) | Plant response rating, Oat, Wild [4, 16] | Plant response rating, Chickweed [6, 16] | Chickweed plant response rating [6, 17] | Plant response rating, Ragweed [5, 16] | also measured
COC(=O)Oc1c(Br)nn(C)c(=O)c1-c1c(C)ccc2ccccc12 [Compound 137] | 100 | 100 | 70 | 90 | 10 | 40 | 80 | 95 | 95 | 100 |  |  |  |  |  |  |  |  |  |  | Plant response rating, Barnyardgrass [1]: 25; Plant response rating, Rice (rice (Oryza sativa)): 0; Plant response rating, Ducksalad [2]: 40; Plant response rating, Sedge, Umbrella [3]: 65; Kochia plant response rating (kochia (Kochia scoparia); [8]): 100; Kochia plant response rating (kochia (Kochia scoparia); [10]): 100; Oat, Wild plant response rating [4, 8]: 70; Oat, Wild plant response rating [4, 10]: 90; Ragweed plant response rating [5, 8]: 20; Ragweed plant response rating [5, 10]: 30
Cc1nn(C)c(=O)c(-c2c(C)oc3c(C)cccc23)c1O [Compound 9, 4-(2,7-dimethyl-3-benzofuranyl)-5-hydroxy-2,6-dimethyl-3(2H)-pyridazinone] |  |  |  |  |  |  |  |  |  |  | 0 | 0 | 0 | 0 |  |  |  |  |  |  | 
CC(=O)Oc1c(Br)nn(C)c(=O)c1-c1c(C)ccc2ccccc12 [Compound 129] | 50 | 95 | 85 | 98 | 90 | 95 | 70 | 85 | 95 | 95 |  |  |  |  | 100 |  |  |  |  |  | Kochia plant response rating (kochia (Kochia scoparia); [8]): 60; Kochia plant response rating (kochia (Kochia scoparia); [10]): 90; Oat, Wild plant response rating [4, 8]: 90; Oat, Wild plant response rating [4, 10]: 100; Plant response rating, Chickweed [6, 7]: 98; Chickweed plant response rating [6, 8]: 98; Chickweed plant response rating [6, 10]: 100; Ragweed plant response rating [5, 8]: 90; Ragweed plant response rating [5, 10]: 95
CCc1sc2cc(C)cc(C)c2c1-c1c(O)c(C)nn(C)c1=O [Compound 19, 4-(2-ethyl-4,6-dimethylbenzo[b]thien-3-yl)-5-hydroxy-2,6-dimethyl-3(2H)-pyridazinone] |  |  |  |  |  |  |  |  |  |  | 0 | 0 | 0 | 0 |  |  |  |  |  |  | 
CC(=O)Oc1c(C)nn(C)c(=O)c1-c1c(C)oc2c(C)cccc12 [Compound 15, 5-(acetyloxy)-4-(2,7-dimethyl-3-benzofuranyl)-2,6-dimethyl-3(2H)-pyridazinone] |  |  |  |  |  |  |  |  |  |  | 0 | 0 | 20 | 0 |  |  |  |  |  |  | 
Cc1ccc(-c2c(O)c(Br)nn(C)c2=O)c2ccccc12 [Compound 52] |  | 70 |  | 0 |  | 98 |  |  |  |  |  |  |  |  | 100 | 5 | 0 | 98 | 90 | 80 | Kochia plant response rating (kochia (Kochia scoparia); [15]): 0; Kochia plant response rating (kochia (Kochia scoparia); [17]): 0; Oat, Wild plant response rating [4, 15]: 0; Oat, Wild plant response rating [4, 17]: 0; Chickweed plant response rating [6, 15]: 95; Ragweed plant response rating [5, 15]: 55; Ragweed plant response rating [5, 17]: 65
Cc1cc(C)c2oc(C)c(-c3c(O)c(C)nn(C)c3=O)c2c1 [Compound 12, 5-hydroxy-2,6-dimethyl-4-(2,5,7-trimethyl-3-benzofuranyl)-3(2H)-pyridazinone] |  |  |  |  |  |  |  |  |  |  | 0 | 0 | 30 | 0 |  |  |  |  |  |  | 
CCOC(=O)Oc1c(C)nn(C)c(=O)c1-c1c(CC)ccc2ccccc12 [Compound 37] |  | 80 |  | 90 |  | 98 | 85 | 90 | 95 | 98 |  |  |  |  | 95 | 5 | 90 | 90 | 90 | 98 | Kochia plant response rating (kochia (Kochia scoparia); [15]): 0; Kochia plant response rating (kochia (Kochia scoparia); [17]): 0; Oat, Wild plant response rating [4, 15]: 60; Oat, Wild plant response rating [4, 17]: 80; Chickweed plant response rating [6, 15]: 90; Ragweed plant response rating [5, 15]: 90; Ragweed plant response rating [5, 17]: 95
Cc1nn(C)c(=O)c(-c2c(C)sc3ccc(Cl)cc23)c1O [Compound 104] | 95 | 100 | 80 | 90 | 85 | 100 | 85 | 90 | 95 | 100 |  |  |  |  | 100 | 95 | 90 | 100 | 98 | 98 | Plant response rating, Chickweed [6, 7]: 90
CCCC(=O)Oc1c(C)nn(C)c(=O)c1-c1c(C)sc2c(C)cc(C)cc12 [Compound 106] | 70 | 80 | 50 | 90 | 80 | 98 | 85 | 90 | 95 | 95 |  |  |  |  | 98 | 80 | 90 | 95 | 98 | 75 | Plant response rating, Chickweed [6, 7]: 95
COc1ccc2ccccc2c1-c1c(O)c(C)nn(C)c1=O [Compound 40] |  |  |  |  |  |  |  |  |  |  |  |  |  |  |  | 0 | 60 | 90 | 60 | 85 | Plant response rating, Kochia (kochia (Kochia scoparia); [18]): 20; Kochia plant response rating (kochia (Kochia scoparia); [15]): 70; Kochia plant response rating (kochia (Kochia scoparia); [17]): 80; Plant response rating, Oat, Wild [4, 18]: 5; Oat, Wild plant response rating [4, 15]: 35; Oat, Wild plant response rating [4, 17]: 50; Plant response rating, Chickweed [6, 18]: 50; Chickweed plant response rating [6, 15]: 55; Plant response rating, Ragweed [5, 18]: 25; Ragweed plant response rating [5, 15]: 45; Ragweed plant response rating [5, 17]: 75
COc1nn(C)c(=O)c(-c2c(C)c(C)cc3ccccc23)c1O [Compound 46, 4-(2,3-dimethyl-1-naphthalenyl)-5-hydroxy-6-methoxy-2-methyl-3(2H)-pyridazinone] |  |  |  |  |  |  |  |  |  |  | 0 | 0 | 0 | 0 |  |  |  |  |  |  | 
